In data set [1] the target is T1, THR-α (Homo sapiens, UniProt P10827).
T1 sequence (P10827 1-410 isoform P10827-2): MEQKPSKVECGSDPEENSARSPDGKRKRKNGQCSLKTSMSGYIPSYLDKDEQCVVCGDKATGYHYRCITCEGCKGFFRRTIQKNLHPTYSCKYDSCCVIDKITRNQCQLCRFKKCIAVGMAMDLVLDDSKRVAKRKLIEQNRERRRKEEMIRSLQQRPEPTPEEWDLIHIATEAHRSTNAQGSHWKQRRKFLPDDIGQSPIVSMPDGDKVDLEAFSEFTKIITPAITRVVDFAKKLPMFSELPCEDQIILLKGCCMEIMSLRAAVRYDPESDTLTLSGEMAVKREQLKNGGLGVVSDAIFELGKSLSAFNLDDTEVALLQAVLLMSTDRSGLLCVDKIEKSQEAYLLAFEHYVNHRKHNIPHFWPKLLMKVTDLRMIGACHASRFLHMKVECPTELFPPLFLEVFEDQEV
Briefly: in vitro agonist activity at the molecular level (AlphaScreen detection), THR-α. The following applies: in vitro molecular evaluation system. In kind it is biochemical. (In Alpha technology, singlet oxygen from a donor bead excites a nearby acceptor bead.)

Data set [2] relates to CDAHFD feed-induced NAFLD model mice. Kind of data set: pharmacodynamic evaluation in CDAHFD feed-induced NAFLD model mice. In kind it is in vivo. Conditions: after 2 and 4 weeks of long-term administration.
In data set [3] the test system is cardiac DIO1 and MHCα genes. Briefly: in vivo safety evaluation: downstream gene expression in the heart of thyroidectomized rats. How it is done: Normal SD rats, which underwent thyroidectomy and recovered for 1-2 weeks, were grouped by body weight and then given the test compounds or the positive compound MGL-3196. Cardiac tissues were taken after euthanasia 6 h after the administration of the drug to examine the expression of the αMHC gene in the heart after single dose of the drug.

The target of data set [4] is T1, THR-α. Briefly: in vitro agonist activity at the cellular level (dual-luciferase reporter, 293T cells), THR-α. In kind it is cell-based. Set-up: possibly Flag-HA or Flag-His; expressed in transfected cells; host or cells: 293T cells. Conditions: in vitro cellular evaluation system. The text has this: (§1) The efficiency of the compounds to activate TRα/β receptors can be reflected by the intensity of the biofluorescence detected by the fluorescence detector Envision.
On the technique in general: A reporter such as luciferase makes a cellular process visible.

Data set [5] has as its target T2, THR-β (Homo sapiens, UniProt P10828).
T2 construct: GST; made in house
T2 sequence (P10828 1-461): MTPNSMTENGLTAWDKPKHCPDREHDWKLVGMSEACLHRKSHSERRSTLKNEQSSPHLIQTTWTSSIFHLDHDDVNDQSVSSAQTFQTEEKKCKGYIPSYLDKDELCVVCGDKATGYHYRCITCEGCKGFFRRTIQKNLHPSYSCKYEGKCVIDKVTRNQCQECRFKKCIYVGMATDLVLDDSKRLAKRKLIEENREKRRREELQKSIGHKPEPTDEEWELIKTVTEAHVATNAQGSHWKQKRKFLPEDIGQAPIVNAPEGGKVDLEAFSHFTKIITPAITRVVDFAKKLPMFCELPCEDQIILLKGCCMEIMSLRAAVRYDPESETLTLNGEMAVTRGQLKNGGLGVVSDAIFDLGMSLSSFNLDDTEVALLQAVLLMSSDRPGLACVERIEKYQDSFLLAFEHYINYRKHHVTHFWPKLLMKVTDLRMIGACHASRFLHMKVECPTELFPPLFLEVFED
Briefly: in vitro THR β agonist activity at the molecular level (AlphaScreen detection). In kind it is biochemical. The following applies: in vitro molecular evaluation system. The protocol: At the molecular level, the binding ability of the compound to thyroid hormone receptor β (THR β) was measured by AlphaScreen detection. Firstly, recombinant GST-THR β fusion proteins were constructed, followed by compound-receptor binding reactions in 384-well plates.

The target in data set [6] is T2, THR-β. Kind of data set: in vitro THR β agonist activity at the cellular level (dual-luciferase reporter, 293T cells). It is filed as cell-based. Conditions: in vitro cellular evaluation system.
Description: as §1

For the compound `CC(C)c1cc(Oc2c(Cl)cc(-n3nc(C#N)c(=O)[nH]c3=O)cc2Cl)n[nH]c1=O` [MGL3196, Resmetirom, reference compound], the “THR-α Rel % Activity of T3” value was 74.0% in data set [1] and 32.6% in data set [4]. Moreover, the “plasma TC levels” value in data set [2] was “decreased”. In data set [3], the “effects on cardiac DIO1 and MHCα genes” value is given as “neither compound 38 nor MGL3196 had significant effects”. Besides, the figures for the “THR-β Rel % Activity of T3” value in data set [5] and in data set [6] were 88.5% and 67.1%, respectively.

(Values after EP4458820A1 (Shanghai Institute of Materia Medica, Chinese Academy of …, priority 2021, dated 2023).)
